In the experiment the target is T1, human EGFR (Homo sapiens, UniProt P00533).
T1 construct: purchased Sigma E-2645; host or cells: A431 human carcinoma cells (natural source)
The experiment in a line: EGFR autophosphorylation, EGFR [pY845] PSSA ELISA. The format is biochemical. Conditions: purified human EGFR, 1 uM ATP, 30 minutes at 30° C.; FIG. 16.

T1 sequence (P00533 25-1210): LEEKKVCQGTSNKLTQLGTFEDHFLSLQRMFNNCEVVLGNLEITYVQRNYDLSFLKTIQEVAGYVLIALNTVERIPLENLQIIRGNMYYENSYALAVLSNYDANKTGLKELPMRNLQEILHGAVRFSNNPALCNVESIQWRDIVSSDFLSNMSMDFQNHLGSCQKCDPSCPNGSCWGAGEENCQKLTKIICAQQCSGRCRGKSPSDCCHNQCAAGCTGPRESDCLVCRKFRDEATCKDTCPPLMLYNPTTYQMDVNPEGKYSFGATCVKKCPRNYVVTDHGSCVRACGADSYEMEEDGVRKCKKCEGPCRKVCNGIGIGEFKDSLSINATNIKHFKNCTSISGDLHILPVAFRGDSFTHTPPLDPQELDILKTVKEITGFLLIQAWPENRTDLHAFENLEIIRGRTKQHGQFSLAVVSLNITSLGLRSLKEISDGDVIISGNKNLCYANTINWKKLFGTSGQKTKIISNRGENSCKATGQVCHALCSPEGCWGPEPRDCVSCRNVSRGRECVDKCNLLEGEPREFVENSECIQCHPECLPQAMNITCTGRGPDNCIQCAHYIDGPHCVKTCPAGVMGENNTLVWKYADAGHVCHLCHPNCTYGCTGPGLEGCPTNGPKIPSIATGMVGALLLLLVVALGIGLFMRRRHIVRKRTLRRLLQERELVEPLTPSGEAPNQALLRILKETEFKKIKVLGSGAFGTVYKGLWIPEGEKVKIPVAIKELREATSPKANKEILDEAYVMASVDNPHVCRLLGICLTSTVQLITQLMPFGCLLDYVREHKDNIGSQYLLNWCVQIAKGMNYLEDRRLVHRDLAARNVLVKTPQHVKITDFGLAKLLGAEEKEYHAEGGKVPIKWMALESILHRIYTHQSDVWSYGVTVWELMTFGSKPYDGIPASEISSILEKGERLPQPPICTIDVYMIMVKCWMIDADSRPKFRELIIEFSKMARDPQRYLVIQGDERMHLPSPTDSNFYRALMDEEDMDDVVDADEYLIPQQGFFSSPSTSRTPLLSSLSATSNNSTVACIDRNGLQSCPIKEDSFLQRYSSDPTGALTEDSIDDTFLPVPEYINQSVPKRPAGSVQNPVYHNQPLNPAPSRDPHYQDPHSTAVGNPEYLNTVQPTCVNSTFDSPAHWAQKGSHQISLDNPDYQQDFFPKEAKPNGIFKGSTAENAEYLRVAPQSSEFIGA
Excerpt: EGFR System: This model system presents an analysis of the cell surface receptor Epidermal Growth Factor Receptor (EGFR). This protein is a large transmembrane signaling protein with multiple phosphorylation sites consisting of phospho-threonine, phospho-serine and phospho-tyrosine residues. EGFR protein: Human EGFR protein was purified from human carcinoma A431 cells by affinity purification. The product is purchased from Sigma (St. Louis, Mo.; cat #E-2645). EGFR [pY^11731 PSSA: Rabbit antiserum was produced against a chemically synthesized phosphopeptide derived from the region of EGFR that contains tyrosine 1173. The sequence is conserved in human, mouse, and rat. Antibody was purified from serum by sequential epitope-specific chromatography. […] The final product is generated by affinity chromatography using an EGFR derived peptide that is phosphorylated at tyrosine 1173. […] EGFR [Py^8451 PSSA: Prepared essentially as EGFR [pY^1173] PSSA but using chemically synthesized phosphopeptides from the region that contains tyrosine 845. EGFR [Pan] monoclonal antibody: The capture antibody is a mouse monoclonal antibody, clone 199.12, available commercially from Neomarkers, Inc. (Union City, Calif.). […] This antibody will bind to both non-phosphorylated and phosphorylated forms of EGFR protein and therefore is used as an initial capture antibody in the EGFR ELISA. EGFR [Pan] […]

With `CNc1cc2c(Nc3cccc(Br)c3)ncnc2cn1` [PD158780], the “EGFR [pY845] phosphorylation (autophosphorylation)” value is “inhibition of that activity”.

These data come from patent US7888050B2, “Method for quantifying phosphokinase activity on proteins” (Life Technologies Corporation, priority 2000, dated 2011).
